Drawing on patent publication US11535611B2, “Pyrazolo[3,4-B]pyridines and imidazo[1,5-B]pyridazines as PDE1 inhibitors” (H. Lundbeck A/S, priority 2017, dated 2022), this text covers inhibition and IC50 for 26 compounds.

Each structure is given as a SMILES string.

Holding throughout (type): biochemical
Experiment [1] deals with PDE1A (Homo sapiens (Human), UniProt P54750). In words: PDE1 inhibition assay, PDE1A. To be noted: for inhibition at 10 µM: @ 10 μM compound; for IC50: 15 nM tritium labelled cAMP, 1 hr at room temperature, SPA beads; for inhibition at 1 µM: @ 1 μM compound. The procedure: (§1) PDE1A, PDE1B and PDE1C assays were performed as follows: the assays were performed in 60 μL samples containing a fixed amount of the PDE1 enzyme (sufficient to convert 20-25% of the cyclic nucleotide substrate), a buffer (50 mM HEPES (4-(2-hydroxyethyl)-1-piperazineethanesulfonic acid) pH 7.6; 10 mM MgCl2; 0.02% Tween20), 0.1 mg/ml BSA (bovine serum albumin), 15 nM tritium labelled cAMP and varying amounts of inhibitors. Reactions were initiated by addition of the cyclic nucleotide substrate, and reactions were allowed to proceed for 1 hr at room temperature before being terminated through mixing with 20 μL (0.2 mg) yttrium silicate SPA beads (PerkinElmer). The beads were allowed to settle for 1 hour in the dark before the plates were counted in a Wallac 1450 Microbeta counter. The measured signals were converted to activity relative to an uninhibited control (100%) and IC50 values were calculated using XIFit (model 205, IDBS).
Chain of PDE1A (P54750 whole entry): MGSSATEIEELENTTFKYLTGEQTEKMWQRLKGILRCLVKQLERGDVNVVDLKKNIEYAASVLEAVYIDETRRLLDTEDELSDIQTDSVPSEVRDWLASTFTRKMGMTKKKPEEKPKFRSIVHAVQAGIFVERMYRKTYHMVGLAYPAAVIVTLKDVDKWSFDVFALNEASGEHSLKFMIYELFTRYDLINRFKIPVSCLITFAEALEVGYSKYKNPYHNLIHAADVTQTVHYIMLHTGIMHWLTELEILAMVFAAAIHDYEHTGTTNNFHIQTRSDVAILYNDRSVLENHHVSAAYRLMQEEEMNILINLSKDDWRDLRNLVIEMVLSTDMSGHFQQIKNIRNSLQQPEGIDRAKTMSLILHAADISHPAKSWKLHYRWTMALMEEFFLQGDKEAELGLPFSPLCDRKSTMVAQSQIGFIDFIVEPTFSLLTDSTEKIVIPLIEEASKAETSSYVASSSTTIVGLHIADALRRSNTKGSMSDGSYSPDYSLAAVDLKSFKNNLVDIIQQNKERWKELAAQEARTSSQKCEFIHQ

The target in experiment [2] is PDE1C (Homo sapiens (Human), UniProt Q14123). Kind of experiment: PDE1 inhibition assay, PDE1C. To be noted: for inhibition at 10 µM: @ 10 μM compound, read-out: PDE1 C, % inhibition @ 10 μM; for IC50: 15 nM tritium labelled cAMP, 1 hr at room temperature, SPA beads, read-out: PDE1 C, IC50; for inhibition at 1 µM: @ 1 μM compound, read-out: PDE1 C, % inhibition @ 1 μM. The procedure: as §1
Chain of PDE1C (Q14123 whole entry): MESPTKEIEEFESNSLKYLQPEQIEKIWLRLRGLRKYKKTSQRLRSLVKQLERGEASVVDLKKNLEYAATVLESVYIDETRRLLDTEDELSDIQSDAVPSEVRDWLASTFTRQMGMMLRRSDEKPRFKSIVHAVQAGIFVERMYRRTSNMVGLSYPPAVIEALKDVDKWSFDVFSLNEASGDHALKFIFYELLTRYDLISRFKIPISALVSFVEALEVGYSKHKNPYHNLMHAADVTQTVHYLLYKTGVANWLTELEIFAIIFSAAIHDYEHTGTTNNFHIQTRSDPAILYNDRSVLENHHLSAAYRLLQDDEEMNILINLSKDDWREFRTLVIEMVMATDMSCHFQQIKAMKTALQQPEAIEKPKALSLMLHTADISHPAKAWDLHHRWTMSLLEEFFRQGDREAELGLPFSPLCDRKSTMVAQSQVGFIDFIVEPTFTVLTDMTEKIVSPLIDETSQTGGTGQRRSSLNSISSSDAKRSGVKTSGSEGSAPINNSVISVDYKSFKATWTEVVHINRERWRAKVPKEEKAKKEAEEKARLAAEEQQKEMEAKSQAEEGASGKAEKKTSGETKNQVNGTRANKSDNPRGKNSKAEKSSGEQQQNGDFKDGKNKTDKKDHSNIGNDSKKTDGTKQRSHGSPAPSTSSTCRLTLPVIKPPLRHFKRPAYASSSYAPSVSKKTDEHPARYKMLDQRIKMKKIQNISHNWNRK

The target in experiment [3] is PDE1B (Homo sapiens (Human), UniProt Q01064). In words: PDE1 inhibition assay, PDE1B. Conditions: for IC50: 15 nM tritium labelled cAMP, 1 hr at room temperature, SPA beads, read-out: PDE1 B, IC50. The procedure:
as §1

Chain of PDE1B (Q01064 whole entry): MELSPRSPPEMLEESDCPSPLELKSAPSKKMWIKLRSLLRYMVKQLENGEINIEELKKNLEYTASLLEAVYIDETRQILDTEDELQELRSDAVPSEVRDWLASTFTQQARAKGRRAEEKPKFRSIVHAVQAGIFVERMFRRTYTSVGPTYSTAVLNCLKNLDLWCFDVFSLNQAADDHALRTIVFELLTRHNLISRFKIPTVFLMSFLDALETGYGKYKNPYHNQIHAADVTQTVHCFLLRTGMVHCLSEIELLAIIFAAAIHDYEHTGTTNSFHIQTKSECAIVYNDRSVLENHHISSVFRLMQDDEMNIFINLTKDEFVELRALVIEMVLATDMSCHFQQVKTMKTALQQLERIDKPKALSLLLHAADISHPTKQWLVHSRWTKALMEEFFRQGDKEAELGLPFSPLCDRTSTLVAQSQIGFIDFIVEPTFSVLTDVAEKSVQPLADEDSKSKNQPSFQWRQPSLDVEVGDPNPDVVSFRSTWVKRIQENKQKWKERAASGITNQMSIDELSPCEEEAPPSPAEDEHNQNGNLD

As for `CCOc1ccc(-c2cc(N[C@@H]3CCOC3)c3c(cnn3C(C)C)n2)cc1` [Example 33, 5-(4-ethoxyphenyl)-1-isopropyl-N-[(3R)-tetrahydrofuran-3-yl]pyrazolo[4,3-b]pyridin-7-amine], the inhibition (usually the change of the read-out against control, counted positive when it falls) at 10 µM is 20% in experiment [1]; 24% in experiment [2]; 46% in experiment [3] (@ 10 μM compound, read-out: PDE1 B, % inhibition @ 10 μM).
Turning to `CCOc1ncccc1-c1ccn2c(CC(F)(F)F)nc(C)c2n1` [Example 78, 2-(2-ethoxy-3-pyridyl)-8-methyl-6-(2,2,2-trifluoroethyl)imidazo[1,5-a]pyrimidine], the IC50 (commonly the point on the concentration scale where inhibition reaches its midpoint) in experiment [1] is 321 nM; in experiment [2] it was 717 nM; in experiment [3], 207 nM.
On to `CCOc1ccccc1-c1cc(N[C@@H]2CCOC2)c2c(cnn2C(C)C)n1` [Example 53, 5-(2-ethoxyphenyl)-1-isopropyl-N-[(3R)-tetrahydrofuran-3-yl]pyrazolo[4,3-b]pyridin-7-amine], for which the inhibition at 10 µM in experiment [1] worked out at 73%; in experiment [2] it was 61%. Besides, the IC50 in experiment [3] is 299 nM.
Regarding `CCOc1ncccc1-c1cc(N[C@@H]2CCCOC2)c2c(cnn2C(C)C)n1` [Example 8, 5-(2-ethoxy-3-pyridyl)-1-isopropyl-N-[(3R)-tetrahydropyran-3-yl]pyrazolo[4,3-b]pyridin-7-amine], the values for the IC50 in experiment [1], in experiment [2] and in experiment [3] were 2160 nM, 2870 nM and 423 nM, respectively.
On the same counts, the results for `CCOc1ncccc1-c1ccn2c(C3COC3)nc(C)c2n1` [Example 79, 2-(2-ethoxy-3-pyridyl)-8-methyl-6-(oxetan-3-yl)imidazo[1,5-a]pyrimidine] are 406 nM, 632 nM and 78 nM.
For the compound `CCCn1ncc2nc(-c3cccnc3OCC)cc(N[C@@H]3CCOC3)c21` (single isomer, unassigned) [Example 24, 5-(2-ethoxy-3-pyridyl)-1-propyl-N-[tetrahydrofuran-3-yl]pyrazolo[4,3-b]pyridin-7-amine], the IC50 was found to be 327 nM in experiment [1], 703 nM in experiment [2] and 177 nM in experiment [3].
The matching figures for `CCOc1ncccc1-c1cc(NCC2CCC(=O)N2C)c2c(n1)c(C)nn2C(C)C` (racemic) [Example 67, (±)-5-[[[5-(2-ethoxy-3-pyridyl)-1-isopropyl-3-methyl-pyrazolo[4,3-b]pyridin-7-yl]amino]methyl]-1-methyl-pyrrolidin-2-one]: 70 nM, 106 nM and 11 nM.
The matching figures for `CCOc1ncccc1-c1cc(N[C@H]2CCCOC2)c2c(cnn2C(C)C)n1` [Example 9, 5-(2-ethoxy-3-pyridyl)-1-isopropyl-N-[(3S)-tetrahydropyran-3-yl]pyrazolo[4,3-b]pyridin-7-amine]: 687 nM, 2700 nM and 295 nM.
In the case of `CCOc1ncccc1-c1cc(N[C@@H]2CCC[C@H]2OC)c2c(cnn2C)n1` [Example 86, 5-(2-ethoxy-3-pyridyl)-N-[(1R,2R)-2-methoxycyclopentyl]-1-methyl-pyrazolo[4,3-b]pyridin-7-amine], the results for the inhibition at 1 µM in experiment [1] and in experiment [2] were 22% and 20%, respectively. Besides, in experiment [3], the 50% inhibitory concentration (IC50) worked out at 536 nM.
`CCOc1ncccc1-c1cc(N[C@@H]2CCOC2)c2c(cnn2CC)n1` (single isomer, unassigned) [Example 19, 5-(2-ethoxy-3-pyridyl)-1-ethyl-N-[tetrahydrofuran-3-yl]pyrazolo[4,3-b]pyridin-7-amine]: the IC50 was found to be 326 nM in experiment [1], 3060 nM in experiment [2] and 86 nM in experiment [3].
On the same counts, the results for `CCOc1ncccc1-c1cc(NCC2CC(=O)N(C)C2)c2c(n1)c(C)nn2C(C)C` (stereo not drawn) [Example 68, 4-[[[5-(2-ethoxy-3-pyridyl)-1-isopropyl-3-methyl-pyrazolo[4,3-b]pyridin-7-yl]amino]methyl]-1-methyl-pyrrolidin-2-one] are 53 nM, 88 nM and 12 nM.
Consider `CCOc1ncccc1-c1cc(NC2CCOC2)c2c(cnn2C2CCOC2)n1` (stereo not drawn) [Example 2, 5-(2-ethoxy-3-pyridyl)-N,1-di(tetrahydrofuran-3-yl)pyrazolo[4,3-b]pyridin-7-amine], for which the inhibition at 1 µM in experiment [1] is 13%. The concentration for half-maximal inhibition (IC50) in experiment [2] amounted to 403 nM; in experiment [3], 445 nM.
In the case of `CCOc1ncccc1-c1cc(NC2CCOC2)c2c(cnn2C2COC2)n1` (racemic) [Example 5, (±)-5-(2-ethoxy-3-pyridyl)-1-(oxetan-3-yl)-N-tetrahydrofuran-3-yl-pyrazolo[4,3-b]pyridin-7-amine], the figures for the inhibition at 1 µM in experiment [1] and in experiment [2] were 47% and 20%, respectively. Besides, the IC50 in experiment [3] turned out to be 447 nM.
The matching figures for `CCOc1ncccc1-c1cc(N2CC[C@@H](OC)C2)c2c(cnn2C)n1` [Example 85, 5-(2-ethoxy-3-pyridyl)-7-[(3R)-3-methoxypyrrolidin-1-yl]-1-methyl-pyrazolo[4,3-b]pyridine]: 23%, 56% and 536 nM.
Take `CCOc1ncccc1-c1cc(NC)c2c(n1)c(C)nn2C(C)C` [Example 65, 5-(2-ethoxy-3-pyridyl)-1-isopropyl-N,3-dimethyl-pyrazolo[4,3-b]pyridin-7-amine]: the IC50 in experiment [1] was found to be 50 nM; in experiment [2] it was 111 nM; in experiment [3] it was 7 nM.
Regarding `COc1ncccc1-c1cc(N[C@@H]2CCOC2)c2c(cnn2C(C)C)n1` [Example 28, 1-isopropyl-5-(2-methoxy-3-pyridyl)-N-[(3R)-tetrahydrofuran-3-yl]pyrazolo[4,3-b]pyridin-7-amine], the IC50 in experiment [1] was 533 nM; in experiment [2], 1080 nM; in experiment [3] it was 124 nM.
The matching figures for `CCOc1ncccc1-c1ccn2c([C@H](C)CC)nc(C)c2n1` (single isomer, unassigned) [Example 83, 2-(2-ethoxy-3-pyridyl)-8-methyl-6-[1-methylpropyl]imidazo[1,5-a]pyrimidine]: 51 nM, 77 nM and 6 nM.
The matching figures for `CCOc1ncccc1-c1nc2c(C)nn(CC)c2cc1C` [Example 15, 5-(2-ethoxy-3-pyridyl)-1-ethyl-3,6-dimethyl-pyrazolo[4,3-b]pyridine]: 1010 nM, 1890 nM and 156 nM.
On the same counts, the results for `CCOc1ncccc1-c1ccn2c(C(C)C)nc(C)c2n1` [Example 72, 2-(2-ethoxy-3-pyridyl)-6-isopropyl-8-methyl-imidazo[1,5-a]pyrimidine] are 96 nM, 213 nM and 34 nM.
With `CCOc1ncccc1-c1cc(N[C@@H]2CCOC2)c2c(cnn2CC)n1` (single isomer, unassigned) [Example 20, 5-(2-ethoxy-3-pyridyl)-1-ethyl-N-[tetrahydrofuran-3-yl]pyrazolo[4,3-b]pyridin-7-amine], the IC50 amounted to 467 nM in experiment [1], 957 nM in experiment [2] and 179 nM in experiment [3].
On to `COc1nc(C)ccc1-c1cc(N[C@@H]2CCOC2)c2c(cnn2C(C)C)n1` [Example 29, 1-isopropyl-5-(2-methoxy-6-methyl-3-pyridyl)-N-[(3R)-tetrahydrofuran-3-yl]pyrazolo[4,3-b]pyridin-7-amine], for which the inhibition at 10 µM in experiment [1] came to 31%; in experiment [2], 68%. The IC50 in experiment [3] turned out to be 1690 nM.
On the same counts, the results for `CC(C)n1ncc2nc(-c3cncnc3)cc(N[C@@H]3CCOC3)c21` [Example 26, 1-isopropyl-5-pyrimidin-5-yl-N-[(3R)-tetrahydrofuran-3-yl]pyrazolo[4,3-b]pyridin-7-amine] are 54%, 70% and 3650 nM.
Regarding `CCOc1ncccc1-c1ccn2c(C3CC3)nc(C)c2n1` [Example 74, 6-cyclopropyl-2-(2-ethoxy-3-pyridyl)-8-methyl-imidazo[1,5-a]pyrimidine], the half-inhibitory concentration (IC50) in experiment [1] turned out to be 394 nM; in experiment [2] it was 1180 nM; in experiment [3] it was 121 nM.
As to `CCOc1ncccc1-c1cc(N2CCCC2)c2c(cnn2CC)n1` [Example 16, 5-(2-ethoxy-3-pyridyl)-1-ethyl-7-pyrrolidin-1-yl-pyrazolo[4,3-b]pyridine], the 50% inhibitory concentration (IC50) in experiment [1] was found to be 461 nM; in experiment [2] it was 1820 nM; in experiment [3] it was 129 nM.
The matching figures for `CCCOc1ncccc1-c1nc2c(C)nn(C(C)C)c2cc1C` [Example 64, 1-isopropyl-3,6-dimethyl-5-(2-propoxy-3-pyridyl)pyrazolo[4,3-b]pyridine]: 118 nM, 220 nM and 25 nM.
Consider `CCOc1ncccc1-c1cc(N2CCC(C)(F)C2)c2c(cnn2C)n1` (racemic) [Example 87, (±)-5-(2-ethoxy-3-pyridyl)-7-(3-fluoro-3-methyl-pyrrolidin-1-yl)-1-methyl-pyrazolo[4,3-b]pyridine], for which the values for the inhibition at 1 µM in experiment [1] and in experiment [2] were 42% and 26%, respectively. Further, the IC50 in experiment [3] turned out to be 376 nM.
